What all share (type): cell-based
Experiment [1] has as its system S. aureus, E. faecalis, S. pyogenes and S. pneumoniae. The experiment in a line: Broth microdilution MIC (NCCLS), gram-positive strains. The following applies: range against some strains of S. aureus, E. faecalis, S. pyogenes and S. pneumoniae; read-out: MIC. In a few lines:
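MICs by broth microdilution per NCCLS M-7 A-6 against ATCC strains, including ORSA and VRE; MBCs determined for selected organisms. Serum effect assessed by repeating MIC tests with human serum present.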
Background: In broth dilution the organism is exposed to a series of concentrations in liquid medium.

For a further experiment, the system named is M. catarrhalis. The experiment in a line: Broth microdilution MIC (NCCLS), M. catarrhalis. The following applies: Moraxella catarrhalis; some strains of M. catarrhalis; read-out: MIC range. As for the experimental part: (§1) Representative bis-quinazolines were tested for antibacterial activity using the […] microdilution method to determine their minimum inhibitory concentrations (MICs). All compounds were tested using standard methods in accordance with NCCLS guidelines (National Committee for Clinical Laboratory Standards. 2003. Methods for dilution antimicrobial susceptibility testing for bacteria that grow aerobically. Approved Standard M-7 A-6, NCCLS, Wayne, Pa.). The bacterial strains used in the susceptibility tests were obtained from the American Type Culture Collection (ATCC) and included resistant phenotypes such as oxacillin-resistant S. aureus (ORSA) and vancomycin-resistant enterococci (VRE). The minimum bactericidal concentrations (MBCs) were determined for selected organisms. The effect of protein binding on the antibacterial activity of representative bis-quinazolines were determined by conducting MIC tests in the presence of human serum.

Another experiment relates to H. influenzae. The experiment in a line: Broth microdilution MIC (NCCLS), H. influenzae. To be noted: Haemophilus influenzae; some strains of H. influenzae. As for the experimental part: as §1
In experiment [2] the test system is efflux mutants of E. coli. The experiment in a line: Broth microdilution MIC (NCCLS), E. coli efflux mutants. To be noted: Escherichia coli, read-out: MICs. As for the experimental part: as §1
Experiment [3] concerns efflux mutants of P. aeruginosa. The experiment in a line: Broth microdilution MIC (NCCLS), P. aeruginosa efflux mutants. The following applies: Pseudomonas aeruginosa, read-out: MICs. As for the experimental part: as §1

The structures appear in SMILES notation.

Consider `COc1cc2nc(Nc3nc(O)c4c(OC)ccc(OC)c4n3)nc(C)c2cc1OC.O=C(O)C(F)(F)F` [Example 99, 2-(6,7-Dimethoxy-4-methyl-quinazolin-2-ylamino)-5,8-dimethoxy-quinazolin-4-ol trifluoroacetate salt], for which the MIC is 0.06 to 16 mg/L in experiment [1]; 2 to 64 mg/L in the experiment on M. catarrhalis; 16 to 32 mg/L in the experiment on H. influenzae; 16 to 64 mg/L in experiment [2]; 64 mg/L in experiment [3].

Turning to `COCCOc1ccc2nc(Nc3nc(C)c4cc(OC)c(OC)cc4n3)nc(O)c2c1.O=C(O)C(F)(F)F` [Example 102, 2-(6,7-Dimethoxy-4-methyl-quinazolin-2-ylamino)-6-(2-methoxy-ethoxy)-quinazolin-4-ol trifluoroacetate salt], the MIC was 0.06 to 16 mg/L in experiment [1]; 2 to 64 mg/L with M. catarrhalis; 16 to 32 mg/L against H. influenzae; 16 to 64 mg/L in experiment [2]; 64 mg/L in experiment [3].

In the case of `COc1cc2c(C)nc(Nc3nc(O)c4cccc(F)c4n3)nc2cc1O.O=C(O)C(F)(F)F` [Example 104, 2-(8-Fluoro-4-hydroxy-quinazolin-2-ylamino)-6-methoxy-4-methyl-quinazolin-7-ol trifluoroacetate salt], the MIC in experiment [1] is 0.06 to 16 mg/L; with M. catarrhalis it was 2 to 64 mg/L; against H. influenzae, 16 to 32 mg/L; in experiment [2] it was 16 to 64 mg/L; in experiment [3], 64 mg/L.

`Cc1nc(Nc2nc(O)c3cccc(F)c3n2)nc2cc3c(cc12)OCCO3.O=C(O)C(F)(F)F` [Example 108, 8-Fluoro-2-(4-methyl-7,8-dihydro-[1,4]dioxino[2,3-g]quinazolin-2-ylamino)-quinazolin-4-ol trifluoroacetate salt]: the MIC in experiment [1] was 0.06 to 16 mg/L; with M. catarrhalis it was 2 to 64 mg/L; in the experiment with H. influenzae, 16 to 32 mg/L; in experiment [2] it was 16 to 64 mg/L; in experiment [3], 64 mg/L.

As to `CCN(CC)CCOc1ccc2nc(Nc3nc(O)c4cccc(OC)c4n3)nc(C)c2c1.O=C(O)C(F)(F)F` [Example 115, 2-[6-(2-Diethylamino-ethoxy)-4-methyl-quinazolin-2-ylamino]-8-methoxy-quinazolin-4-ol trifluoroacetate salt], the MIC is 0.06 to 16 mg/L in experiment [1]; 2 to 64 mg/L with M. catarrhalis; 16 to 32 mg/L with H. influenzae; 16 to 64 mg/L in experiment [2]; 64 mg/L in experiment [3].

Take `COc1cc2nc(Nc3nc(O)c4cc(N)cc(C)c4n3)nc(C)c2cc1OC.O=C(O)C(F)(F)F` [Example 120, 6-Amino-2-(6,7-dimethoxy-4-methyl-quinazolin-2-ylamino)-8-methyl-quinazolin-4-ol trifluoroacetate salt]: the MIC was 0.06 to 16 mg/L in experiment [1]; 2 to 64 mg/L in the experiment on M. catarrhalis; 16 to 32 mg/L against H. influenzae; 16 to 64 mg/L in experiment [2]; 64 mg/L in experiment [3].

In the case of `COc1cc2nc(Nc3nc(O)c4cc(N(C)C)cc(C)c4n3)nc(C)c2cc1OC.O=C(O)C(F)(F)F` [Example 121, 2-(6,7-Dimethoxy-4-methyl-quinazolin-2-ylamino)-6-dimethylamino-8-methyl-quinazolin-4-ol trifluoroacetate salt], the MIC is 0.06 to 16 mg/L in experiment [1]; 2 to 64 mg/L with M. catarrhalis; 16 to 32 mg/L with H. influenzae; 16 to 64 mg/L in experiment [2]; 64 mg/L in experiment [3].

With `CCN(CC)CCOc1ccc2nc(Nc3nc(O)c4cc(N)cc(C)c4n3)nc(C)c2c1.O=C(O)C(F)(F)F` [Example 125, 6-Amino-2-[6-(2-diethylamino-ethoxy)-4-methyl-quinazolin-2-ylamino]-8-methyl-quinazolin-4-ol trifluoroacetate salt], the MIC was 0.06 to 16 mg/L in experiment [1]; 2 to 64 mg/L with M. catarrhalis; 16 to 32 mg/L with H. influenzae; 16 to 64 mg/L in experiment [2]; 64 mg/L in experiment [3].

Take `COc1cccc2c(C)nc(Nc3nc(O)c4cc(OCCN5CCC(O)C5)ccc4n3)nc12.O=C(O)C(F)(F)F` (centres unmarked) [Example 138, 6-[2-(3-Hydroxy-pyrrolidin-1-yl)-ethoxy]-2-(8-methoxy-4-methyl-quinazolin-2-ylamino)-quinazolin-4-ol trifluoroacetate salt]: the MIC is 0.06 to 16 mg/L in experiment [1]; 2 to 64 mg/L in the experiment with M. catarrhalis; 16 to 32 mg/L in the experiment with H. influenzae; 16 to 64 mg/L in experiment [2]; 64 mg/L in experiment [3].

For `COc1cc(OC)c2nc(Nc3nc(O)c4cc(OCCN(C)CCO)ccc4n3)nc(C)c2c1.O=C(O)C(F)(F)F` [Example 140, 2-(6,8-Dimethoxy-4-methyl-quinazolin-2-ylamino)-6-{2-[(2-hydroxy-ethyl)-methyl-amino]-ethoxy}-quinazolin-4-ol trifluoroacetate salt], the MIC in experiment [1] was 0.06 to 16 mg/L; in the experiment on M. catarrhalis, 2 to 64 mg/L; in the experiment on H. influenzae, 16 to 32 mg/L; in experiment [2], 16 to 64 mg/L; in experiment [3], 64 mg/L.

In the case of `COc1cc2nc(Nc3nc(O)c4cc(OCCNC(CO)C(C)C)ccc4n3)nc(C)c2cc1OC.O=C(O)C(F)(F)F` (centres unmarked) [Example 142, 2-(6,7-Dimethoxy-4-methyl-quinazolin-2-ylamino)-6-[2-(1-hydroxymethyl-2-methyl-propylamino)-ethoxy]-quinazolin-4-ol Trifluoroacetate salt], the MIC in experiment [1] was 0.06 to 16 mg/L; in the experiment with M. catarrhalis, 2 to 64 mg/L; against H. influenzae it was 16 to 32 mg/L; in experiment [2], 16 to 64 mg/L; in experiment [3], 64 mg/L.

With `COc1cc(OC)c2nc(Nc3nc(O)c4cc(OCCNC(C)CO)ccc4n3)nc(C)c2c1.O=C(O)C(F)(F)F` (centres unmarked) [Example 143, 2-(6,8-Dimethoxy-4-methyl-quinazolin-2-ylamino)-6-[2-(2-hydroxy-1-methyl-ethylamino)-ethoxy]-quinazolin-4-ol trifluoroacetate salt], the MIC was 0.06 to 16 mg/L in experiment [1]; 2 to 64 mg/L in the experiment on M. catarrhalis; 16 to 32 mg/L against H. influenzae; 16 to 64 mg/L in experiment [2]; 64 mg/L in experiment [3].

On to `CCN(CC)CCOc1ccc2nc(Nc3nc(C)c4cc(OC)cc(OC)c4n3)nc(O)c2c1.O=C(O)C(F)(F)F` [Example 144, 6-(2-Diethylamino-ethoxy)-2-(6,8-dimethoxy-4-methyl-quinazolin-2-ylamino)-quinazolin-4-ol trifluoroacetate salt], for which the MIC in experiment [1] was 0.06 to 16 mg/L; in the experiment with M. catarrhalis it was 2 to 64 mg/L; in the experiment with H. influenzae it was 16 to 32 mg/L; in experiment [2], 16 to 64 mg/L; in experiment [3], 64 mg/L.

Regarding `COc1cc2nc(Nc3nc(O)c4cc(OCCN5CCCCC5)ccc4n3)nc(C)c2cc1OC.O=C(O)C(F)(F)F` [Example 145, 2-(6,7-Dimethoxy-4-methyl-quinazolin-2-ylamino)-6-(2-piperidin-1-yl-ethoxy)-quinazolin-4-ol trifluoroacetate salt], the MIC in experiment [1] was 0.06 to 16 mg/L; with M. catarrhalis it was 2 to 64 mg/L; against H. influenzae, 16 to 32 mg/L; in experiment [2] it was 16 to 64 mg/L; in experiment [3] it was 64 mg/L.

For the molecule `COc1cc2nc(Nc3nc(O)c4cc(OCCN(C)C)ccc4n3)nc(C)c2cc1OC.O=C(O)C(F)(F)F` [Example 146, 2-(6,7-Dimethoxy-4-methyl-quinazolin-2-ylamino)-6-(2-dimethylamino-ethoxy)-quinazolin-4-ol trifluoroacetate salt], the MIC in experiment [1] is 0.06 to 16 mg/L; in the experiment with M. catarrhalis, 2 to 64 mg/L; in the experiment with H. influenzae, 16 to 32 mg/L; in experiment [2] it was 16 to 64 mg/L; in experiment [3], 64 mg/L.

Consider `COc1cc2nc(Nc3nc(O)c4cc(OCCN5CCN(C)CC5)ccc4n3)nc(C)c2cc1OC.O=C(O)C(F)(F)F` [Example 147, 2-(6,7-Dimethoxy-4-methyl-quinazolin-2-ylamino)-6-[2-(4-methyl-piperazin-1-yl)-ethoxy]-quinazolin-4-ol trifluoroacetate salt], for which the MIC in experiment [1] was 0.06 to 16 mg/L; in the experiment with M. catarrhalis, 2 to 64 mg/L; with H. influenzae, 16 to 32 mg/L; in experiment [2], 16 to 64 mg/L; in experiment [3], 64 mg/L.

Regarding `COc1cc2nc(Nc3nc(O)c4cc(OCCN5CCCC5)ccc4n3)nc(C)c2cc1OC.O=C(O)C(F)(F)F` [Example 148, 2-(6,7-Dimethoxy-4-methyl-quinazolin-2-ylamino)-6-(2-pyrrolidin-1-yl-ethoxy)-quinazolin-4-ol trifluoroacetate salt], the MIC in experiment [1] was 0.06 to 16 mg/L; with M. catarrhalis it was 2 to 64 mg/L; against H. influenzae, 16 to 32 mg/L; in experiment [2] it was 16 to 64 mg/L; in experiment [3], 64 mg/L.

In the case of `CCN(CC)CCOc1ccc2nc(Nc3nc(C)c4cc(OC)c(OC)cc4n3)nc(O)c2c1.O=C(O)C(F)(F)F` [Example 149, 6-(2-Diethylamino-ethoxy)-2-(6,7-dimethoxy-4-methyl-quinazolin-2-ylamino)-quinazolin-4-ol trifluoroacetate salt], the MIC is 0.06 to 16 mg/L in experiment [1]; 2 to 64 mg/L in the experiment on M. catarrhalis; 16 to 32 mg/L with H. influenzae; 16 to 64 mg/L in experiment [2]; 64 mg/L in experiment [3].

With `COc1cc2nc(Nc3nc(O)c4cc(OCCCN5CCCC5)ccc4n3)nc(C)c2cc1OC.O=C(O)C(F)(F)F` [Example 151, 2-(6,7-Dimethoxy-4-methyl-quinazolin-2-ylamino)-6-(3-pyrrolidin-1-yl-propoxy)-quinazolin-4-ol trifluoroacetate salt], the MIC in experiment [1] was 0.06 to 16 mg/L; with M. catarrhalis, 2 to 64 mg/L; against H. influenzae it was 16 to 32 mg/L; in experiment [2], 16 to 64 mg/L; in experiment [3] it was 64 mg/L.
